The subject of data set [1] is van-B type E. faecium (ID 553). Briefly: microbe, parasite or virus in culture. The data set is classed as cell-based, Enterococcus faecium. How it is done:
Sixty-six bacteriocins from Syngulon PARAGEN collection and NAI-107 from Naicons, SRL were screened using the resazurin microtiter assay (REMA)[30],[31]. The MIC for the antimicrobials listed in Table 1 were determined according to the clinical and laboratory standard institute (CLSI) guidelines and the European Committee on Antimicrobial Susceptibility Testing (EUCAST) broth microdilution reference method for MIC determination in E. faecium[32],[33].

Another data set relates to vanA E. faecium 569. The settings on record: administered intravenously to neutropenic mice; cited from earlier work. The source says:
(§1) Bacteriocins have gained considerable attention as potential alternatives to traditional antibiotics due to their narrow-spectrum activity and a lower likelihood of inducing resistance[11],[12]. Most leaderless bacteriocins such as Lacticin Q (53 aa), Lacticin Z (53 aa), and Garvicin KS have proven to have inhibitory effects against a range of genera such as Listeria, Staphylococcus and ...

Another data set concerns vanA E. faecalis A533. Particulars: administered intravenously to neutropenic mice; cited from earlier work.
From the text: as §1

Data set [2] deals with methicillin-resistant Staphylococcus aureus. The settings on record: cited from earlier work. The source says: (§2) There are a number of study limitations. […] This hypothesis was motivated by the growing problem of VRE infections. We acknowledge the limitations of this hypothesis. […] This would be of clinica ...
The next data set deals with G. mellonella. Particulars: G. mellonella model; cited from earlier work.
From the text: as §2

Data set [3] deals with vanB-type E. faecium (ID 553). Briefly: Galleria mellonella E. faecium infection model, in vivo efficacy. On the procedure: G. mellonella larvae were treated with a range of doses of vanB-type E. faecium (ID 553) (1 × 10^6–1 × 10^9 CFU/mL) and observed for death alongside phosphate buffer saline (PBS) controls.
Injection of G. mellonella was carried out as described in Dijokaite et al.[21]. The last larval stage of G. mellonella (Terramania, Arnhem, NL) were used for the experiments. Only non-discoloured, healthy larvae were selected. The larvae were injected in the last left proleg using 0.3 mL U-100 insulin syringes (BD Micro-Fine).
Each test group consisted of two groups of 10 larvae per concentration of each bacteriocin or linezolid (10 µg/mL). 30 µl of PBS containing 2.7 × 10^7 CFU E. faecium was used to infect the G. mellonella larva. The larvae were treated with various concentrations of bacteriocins. One positive and two negative control groups were used. The positive control group received only the E. faecium inoculum in PBS. Out of the two negative control groups, one group underwent no manipulation, while the other group was injected with PBS only. Each antimicrobial agent was tested in a single experiment using larvae from the same batch and tested at the same time under identical conditions. Each group were incubated in sterile Petri dishes at 37 °C with a 5% (v/v) CO2 atmosphere for the length of the experiments.
Data were analyzed using GraphPad Prism v9. Survival plots were created using Kaplan–Meier survival curves. Statistical analysis was carried out using the Mantel-Cox test to compare survival curves between the PBS controls and each treatment arm. A P value of < 0.05 was considered statistically significant.

For data set [4] the following is noted: cited from earlier work. The source says: This characteristic implies that NAI-107 would require parenteral administration in multiple doses per day for therapeutic use.
Setting [5] is: Enterococcus faecium, micro broth dilution method, van-B type E. faecium (ID 553), read-out: MIC.
Setting [6] is: micro broth dilution method, van-B type E. faecium (ID 553).
[7] abbreviates: micro broth dilution method, van-B type E. faecium (ID 553), molar value from deduced molecular weight.
Setting [8] is: mouse, single subcutaneous dosing of 5, 20 and 80 mg/kg.

Converted amounts (≈) assume the structure as drawn. Read-outs that look alike come from different tables or passages of the source. Ends that are not written are not given here.

Take `CC1(C)S[C@@H]2[C@H](NC(=O)[C@H](N)c3ccccc3)C(=O)N2[C@H]1C(=O)O` [Ampicillin, reference compound]: the MIC in data set [1] (setting [5]) is not below 32 µg/mL.

`CC[C@H]1OC(=O)[C@H](C)[C@@H](O[C@H]2C[C@@](C)(OC)[C@@H](O)[C@H](C)O2)[C@H](C)[C@@H](O[C@@H]2O[C@H](C)C[C@H](N(C)C)[C@H]2O)[C@](C)(O)C[C@@H](C)C(=O)[C@H](C)[C@@H](O)[C@]1(C)O` [Erythromycin, reference compound]: the MIC in data set [1] (setting [5]) was not below 8 µg/mL.

As to `CNC(C)C1CCC(N)C(OC2C(N)CC(N)C(OC3OCC(C)(O)C(NC)C3O)C2O)O1` (stereo not drawn) [Gentamicin, reference compound], the MIC in data set [1] (setting [5]) is not below 32 µg/mL.

Consider `CC(=O)NC[C@H]1CN(c2ccc(N3CCOCC3)c(F)c2)C(=O)O1` [Linezolid, reference compound], for which, in data set [1] (setting [5]), the MIC worked out at 2 µg/mL (≈ 5.93 µM).

Regarding `CN(C)[C@@H]1C(O)=C(C(N)=O)C(=O)[C@@]2(O)C(O)=C3C(=O)c4c(O)cccc4[C@@](C)(O)[C@H]3C[C@@H]12` [Tetracycline, reference compound], the MIC in data set [1] (setting [5]) turned out to be 0.25 µg/mL (≈ 0.563 µM).

Take `CN[C@H](CC(C)C)C(=O)N[C@H]1C(=O)N[C@@H](CC(N)=O)C(=O)N[C@H]2C(=O)N[C@H]3C(=O)N[C@H](C(=O)N[C@H](C(=O)O)c4cc(O)cc(O)c4-c4cc3ccc4O)[C@H](O)c3ccc(c(Cl)c3)Oc3cc2cc(c3O[C@@H]2O[C@H](CO)[C@@H](O)[C@H](O)[C@H]2O[C@H]2C[C@](C)(N)[C@H](O)[C@H](C)O2)Oc2ccc(cc2Cl)[C@H]1O` [Vancomycin]: in data set [1] (Enterococcus faecium), the MIC was 64 µg/mL (≈ 44.2 µM).

Consider “MSWLNFLKYIAKYGKKAVSAAWKYKGKVLEWLNVGPTLEWVWQKLKKIAGL [Aureocin A53]”, for which the MIC in data set [1] (setting [6]) is 1.56 µg/mL; in data set [1] (setting [7]), 0.2609 µM/L.

In the case of Microbisporicin, in the data set with vanA E. faecium 569, the in vivo efficacy entry is “effective”. Further, the in vivo efficacy entry in the data set on vanA E. faecalis A533 is “effective”. In data set [2], the “efficacy against methicillin-resistant Staphylococcus aureus in rat model” value was “efficacious” and the “toxicity in rat model” value is listed as “non-toxic”. In the data set with G. mellonella, the “concentration up to which no toxicity was exhibited” value is not below 64000 ng/mL. In data set [1] (setting [6]), this compound displayed an MIC of 4 µg/mL. Besides, in data set [1] (setting [7]), the MIC is 0.00178 µM/L. The “mortality compared with the linezolid (10 µg/mL) treated group” value in data set [3] (16 µg/mL group, 120 h) was “significantly lower”. Moreover, in data set [3] (doses tested 2, 4, 8 and 16 µg/mL, 120 h), the “dose groups with the lowest mortality” value is 8 µg/mL and 16 µg/mL. The “in vivo efficacy (survival of infected larvae)” value in data set [3] (larvae infected with 2.7 × 10^7 CFU E. faecium in 30 µl PBS, 20 larvae per group, 2-16 µg/mL, 120 h at 37 °C) is recorded as “effective in vivo at all doses tested”. Further, the bioavailability result in data set [4] (after intramuscular, intravenous and subcutaneous administration) is recorded as “good bioavailability”. Moreover, in data set [4] (setting [8]), the AUC is 27000 to 276000 ng·h/mL, the Cmax was 4000 to 22000 ng/mL and the elimination half-lives was 4.2 to 8.2 h. Further, the oral absorption result in data set [4] (oral) was “not absorbed orally”.

On to Teicoplanin [reference compound], for which, in data set [1] (setting [6]), the MIC was 0.5 µg/mL.

The record behind these values is PMC10899196, “Protective effect of microbisporicin (NAI-107) against vancomycin resistant Enterococcus faecium infection in a Galleria mellonella model” (Scientific Reports, 2024).
